Measured values published in ChEMBL document CHEMBL1201862, “PubChem BioAssay data set” (2004).
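In this assay, cells in 96-well plates receive the compound at five concentrations for 48 hours. Endpoints are linearly interpolated between the surrounding concentrations. At the GI50, growth is halved.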 Calls of active or inactive are those of the source. No stated cut-off is given here; in the data, active = GI50 up to about 1.1 µM and inactive = higher.

Columns and labels:
Assay in all cases: inhibition of tumour cell growth, NCI panel, 48 h
786-0 = system: 786-0
A549 = system: A549
CAKI-1 = system: CAKI-1
COLO 205 = system: COLO 205
HL-60 = system: HL-60
HOP-62 = system: HOP-62
IGROV-1 = system: IGROV-1
K562 = system: K562
MDA-N = system: MDA-N
NCI-H226 = system: NCI-H226
NCI-H23 = system: NCI-H23
NCI-H522 = system: NCI-H522
PC-3 = system: PC-3
RPMI-8226 = system: RPMI-8226
SF-268 = system: SF-268
SF-295 = system: SF-295
SK-MEL-28 = system: SK-MEL-28
SW-620 = system: SW-620
T47D = system: T47D
TK-10 = system: TK-10

Row | Structure (SMILES) | GI50 (786-0) | GI50 (A549) | GI50 (CAKI-1) | GI50 (COLO 205) | GI50 (HL-60) | GI50 (HOP-62) | GI50 (IGROV-1) | GI50 (K562) | GI50 (MDA-N) | GI50 (NCI-H226) | GI50 (NCI-H23) | GI50 (NCI-H522) | GI50 (PC-3) | GI50 (RPMI-8226) | GI50 (SF-268) | GI50 (SF-295) | GI50 (SK-MEL-28) | GI50 (SW-620) | GI50 (T47D) | GI50 (TK-10)
1 | COC1CC(C)(NC(C)=O)C2OC(c3ccccc3)OCC2O1 (stereo not given) | > 100 µM (inactive) | > 100 µM (inactive) | > 100 µM (inactive) | > 100 µM (inactive) | > 100 µM (inactive) | > 100 µM (inactive) | > 100 µM (inactive) | > 100 µM (inactive) | > 100 µM (inactive) | > 100 µM (inactive) | > 100 µM (inactive) | > 100 µM (inactive) | > 100 µM (inactive) | > 100 µM (inactive) | > 100 µM (inactive) | > 100 µM (inactive) | > 100 µM (inactive) | > 100 µM (inactive) | > 100 µM (inactive) | > 100 µM (inactive)
2 | COC(=O)c1cc2c(cc1CC1Cc3cc4c(cc3C1=O)CCC4)CCC2 (stereo not given) | 83.8 µM (inactive) | 40.3 µM (inactive) | > 100 µM (inactive) | 33.3 µM (inactive) | > 100 µM (inactive) | > 100 µM (inactive) | 97.5 µM (inactive) | 20.2 µM (inactive) | 18.2 µM (inactive) | 56.6 µM (inactive) | 41.6 µM (inactive) | 34.1 µM (inactive) | 10.7 µM (inactive) | 25 µM (inactive) | > 100 µM (inactive) | 30.7 µM (inactive) | 76 µM (inactive) | 29.4 µM (inactive) | 24.9 µM (inactive) | 73.1 µM (inactive)
3 | COC(=O)[C@@]12CSC[C@]1(C(=O)OC)N[C@@H](c1ccccc1O)C2 | > 100 µM (inactive) | > 100 µM (inactive) | > 100 µM (inactive) | > 100 µM (inactive) | > 100 µM (inactive) | > 100 µM (inactive) | > 100 µM (inactive) | > 100 µM (inactive) | > 100 µM (inactive) | > 100 µM (inactive) | > 100 µM (inactive) | > 100 µM (inactive) | > 100 µM (inactive) | > 100 µM (inactive) | > 100 µM (inactive) | > 100 µM (inactive) | > 100 µM (inactive) | > 100 µM (inactive) | > 100 µM (inactive) | > 100 µM (inactive)
4 | CN(N=O)C(=O)Nc1ccc(C(=O)O)cc1 | > 100 µM (inactive) | > 100 µM (inactive) | > 100 µM (inactive) | > 100 µM (inactive) | > 100 µM (inactive) | > 100 µM (inactive) | > 100 µM (inactive) | > 100 µM (inactive) | > 100 µM (inactive) | > 100 µM (inactive) | > 100 µM (inactive) | > 100 µM (inactive) | > 100 µM (inactive) | > 100 µM (inactive) | > 100 µM (inactive) | > 100 µM (inactive) | > 100 µM (inactive) | > 100 µM (inactive) | > 100 µM (inactive) | > 100 µM (inactive)
5 | CN(C)CCN1Nc2c3ccccc3nc3c(C(=O)NCCCN(C)CCCNC(=O)c4ccc5c6c(c7ccccc7nc46)NN5CCN(C)C)ccc1c23 | < 0.01 µM (active) | < 0.01 µM (active) | 0.199 µM (active) | 0.0143 µM (active) | 0.012 µM (active) | 0.0104 µM (active) | < 0.01 µM (active) | < 0.01 µM (active) | < 0.01 µM (active) | 0.0187 µM (active) | 0.0202 µM (active) | < 0.01 µM (active) | < 0.01 µM (active) | < 0.01 µM (active) | 0.0112 µM (active) | < 0.01 µM (active) | 0.0498 µM (active) | < 0.01 µM (active) | 0.153 µM (active) | 0.132 µM (active)
